{"source": "patent US20090311246A1", "about": "“Method of Enhancing Remyelination in Demyelinating Diseases of the Central Nervous System” (priority 2008, published 2009)", "key": {"[1]": {"tested_on": "SFV-infected TCR γδ-KO and WT mice", "test": "Clinical scores of SFV-infected, E2 137-151 immunized TCR γδ-KO and WT mice", "assay_type": "in vivo", "conditions": "0.5 mg/injection (25 mg/kg) sc in IFA, scale 0-VI", "protocol": "FIG. 5 Comparison of Clinical Scores (±SEM) of SFV-infected E2 137-151 peptide-immunized, and non-immunized TCR γδ-KO and WT mice, on different days post infection. Data shown is the average of two experiments with a total of 15 WT, 15 KO mice, and 10 immunized KO mice (only 5-10 KO mice could be obtained at each time point). SFV-infected KO mice were immunized subcutaneously with E2 137-151 (0.5 mg/injection or 25 mg/kg, based on the average weight of 20 g/mouse) in IFA, one day after SFV-infection. Additional inoculations of E2 137-151/IFA were performed on days 5, 15, and 20. Mice were sacrificed on days 7, 15, 21, and 35 pi. Clinical scores of sacrificed and dead animals have been considered in average calculation until the end of experiments on day 35. […] Data from E2-137-immunized WT mice is not shown (p=NS).\nMethod—Five-week old C57B16 (B6) WT and KO mice (Jackson Laboratories, Bar Harbor, Mass.) were infected with SFV, and KO mice were immunized subcutaneously with E2-137-151 (0.5 mg/injection or 25 mg/kg, based on the average weight of 20 g/mouse) in IFA, one day after SFV-infection. Additional inoculations of E2 137-151/IFA were performed on days 5 and 15 for KO mice only. Animals were observed daily for clinical manifestations of disease and were scored on a scale of 0-VI. 0=no abnormality; I-mild hind limb weakness (some difficulty righting themselves when turned on their back); II=moderate hind limb weakness, sometimes associated with floppy tail; III=weakness of hind limbs accompanied by some forelimb weakness, sometimes more marked on one limb or one side, but not complete paralysis; IV=hind limb paresis accompanied by mild forelimb weakness; V=paralysis of hind limbs, associated with moderate forelimb weakness; and VI=quadriplegia, moribund."}, "B6 mice with EAE": {"tested_on": "B6 mice with EAE", "test": "Antibody responses (ELISA) of E2 137-151 peptide treated EAE mice", "assay_type": "in vivo", "protocol": "FIG. 7 Comparison of antibody responses (±SEM) of EAE, E2-137-151 peptide treated, and untreated EAE mice to E2-137-151, MOG 35-55 and control peptides. Three experiments were performed with total number of 21 EAE and 22 treated EAE. All mice were immunized subcutaneously with myelin oligodendrocyte glycoprotein (MOG) peptide, 35-55 in CFA, as described above, on D0. EAE mice were treated as described for FIG. 6. All mice were sacrificed at the end of experiment on D39 post immunization.\nTo measure the antibody response of both WT and γδ KO mice against SFV and two of the peptides of the SFV envelope protein, E2, an indirect ELISA was performed. Sera were pooled from 4-6 SFV-infected WT, and 3 KO, mice on days 0, 7, 14, 21 and 35 pi. Briefly, Immunolon 2HB 96 well microtiter plates (VWR, Bridge Port, N.J.) were coated with 1 μg/well of each antigen in 100 μl/well carbonate buffer overnight at room temperature. After washing, the plates were blocked and serum samples were added. […] After washing, biotinylated goat anti-mouse Igs (BD Pharmingen, Torreyana, Calif.), Strepavidin conjugated to Horse Radish Peroxidase (Vector Laboratories, Burlingame, Calif.), and OPD substrate (Sigma, St. Louis, Mo.) were used, as previously described (4, 9). […] Values were considered to be positive when they were >0.3 OD units and exceeded the mean value plus three standard deviations for antibody response on day 0 pi of mice of the same strain.\nAntibody Responses of RAE and E2 137-151 treated EAE mice to E2-137 and control peptide (E2 115-129) were measured by ELISA at the end of experiment on D39 pi."}}}
{"smiles": "CC[C@H](C)[C@H](NC(=O)[C@H](CCC(=O)O)NC(=O)[C@H](CCCCN)NC(=O)CNC(=O)[C@H](Cc1ccc(O)cc1)NC(=O)[C@H](Cc1c[nH]cn1)NC(=O)[C@@H]1CCCN1C(=O)[C@H](CCCNC(=N)N)NC(=O)[C@@H](NC(=O)[C@@H](NC(=O)[C@H](Cc1ccccc1)NC(=O)[C@H](CCCCN)NC(=O)[C@H](CCC(=O)O)NC(=O)[C@H](CCCNC(=N)N)NC(=O)CN)[C@@H](C)O)[C@@H](C)CC)C(=O)O", "note": "[E2 137-151]", "values": [{"measurement": "Average clinical score / severity of disease, immunized KO compared with non-immunized KO mice", "setting": "[1]; listed as E2 137-151 peptide, 25 mg/kg", "result": "significantly suppressed"}, {"measurement": "Average clinical score / severity of disease, immunized KO compared with non-immunized KO mice", "setting": "[1]; listed as E2-137, 25 mg/kg", "result": "nonimmunized <E2-137 immunized KO mice"}, {"measurement": "Average clinical score / severity of disease, immunized KO compared with non-immunized KO mice", "setting": "[1]; listed as E2-137-151, 25 mg/kg", "result": "decreased significantly"}, {"measurement": "Antibody response to E2-137, treated compared with untreated EAE mice", "setting": "B6 mice with EAE; ELISA, D39 pi", "result": "significantly higher than untreated EAE mice"}, {"measurement": "Antibody responses to MOG 35-55 and control peptide, treated compared with untreated EAE mice", "setting": "B6 mice with EAE; ELISA, D39 pi", "result": "no significant difference"}, {"measurement": "Antibody response to E2-137, treated compared with untreated EAE mice", "setting": "B6 mice with EAE; ELISA, D39 pi, listed as E2-137 peptide", "result": "treated>untreated EAE mice"}, {"measurement": "Reactivity of sera from treated EAE mice with MBP 54-68", "setting": "B6 mice with EAE; preliminary experiments", "result": "also reacted with MBP 54-68"}]}
